The nature of data set [1]: mRNA encapsulation by the LNP (% EE, total mRNA in TX). The format is physicochemical. The settings on record: LNP lipid:PEG-1:DSPC:Cholesterol 48:2:11:39, hEPO mRNA. As to the method: For nanoparticle compositions including an RNA, a QUANT-IT™ RIBOGREEN® RNA assay (Invitrogen Corporation Carlsbad, CA) can be used to evaluate the encapsulation of an RNA by the nanoparticle composition. The samples are diluted to a concentration of approximately 5 μg/mL in a TE buffer solution (10 mM Tris-HCl, 1 mM EDTA, pH 7.5). 50 μL of the diluted samples are transferred to a polystyrene 96 well plate and either 50 μL of TE buffer or 50 μL of a 2% Triton X-100 solution is added to the wells. The plate is incubated at a temperature of 37° C. for 15 minutes. The RIBOGREEN® reagent is diluted 1:100 in TE buffer, and 100 μL of this solution is added to each well. The fluorescence intensity can be measured using a fluorescence plate reader (Wallac Victor 1420 Multilablel Counter; Perkin Elmer, Waltham, MA) at an excitation wavelength of, for example, about 480 nm and an emission wavelength of, for example, about 520 nm. The fluorescence values of the reagent blank are subtracted from that of each of the samples and the percentage of free RNA is determined by dividing the fluorescence intensity of the intact sample (without addition of Triton X-100) by the fluorescence value of the disrupted sample (caused by the addition of Triton X-100).
The efficiency of encapsulation of a therapeutic and/or prophylactic agent describes the amount of therapeutic and/or prophylactic agent that is encapsulated or otherwise associated with an LNP after preparation, relative to the initial amount provided. The encapsulation efficiency is desired to be high (e.g., close to 100%). The encapsulation efficiency may be measured, for example, by comparing the amount of therapeutic and/or prophylactic agent in a solution containing a loaded LNP before and after breaking up the loaded LNP with one or more organic solvents or detergents. Fluorescence may be used to measure the amount of free therapeutic and/or prophylactic agent (e.g., RNA) in a solution. For the loaded LNPs formulated with lipids of the disclosure, the encapsulation efficiency of a therapeutic and/or prophylactic agent is at least 50%, for example 50%, 55%, 60%, 65%, 70%, 75%, 80%, 85%, 90%, 91%, 92%, 93%, 94%, 95%, 96%, 97%, 98%, 99%, or 100%. In some embodiments, the encapsulation efficiency is at least 80%. In some embodiments, the encapsulation efficiency is at least 90%. In some embodiments, the encapsulation efficiency of the therapeutic and/or prophylactic agent is between 80% and 100%.
(§1) LNPs comprising ionizable lipids described herein were formulated according to Table 2 and the following general procedure.
(§2) General procedure for one-pot LNP formation: Lipid stock solutions in ethanol are mixed with mRNA in 25 mM acetate solution at a 3:1 ratio in a microfluidic mixer. The resulting LNPs, which are at approximately pH 5 and 25% EtOH, are buffer exchanged by dialysis into the storage buffer. The LNP solutions are then concentrated by Amicon® and purified by a 0.2 uM sterile filter.

The next data set has as its system hEPO protein expression. The experiment in a line: hEPO protein expression in vivo after systemic administration of LNPs. As to the method:
In order to monitor how effectively various nanoparticle compositions deliver therapeutic and/or prophylactic agents to targeted cells, different nanoparticle compositions including a particular therapeutic and/or prophylactic agent (for example, a modified or naturally occurring RNA such as an mRNA) are prepared and administered to animal populations. Animals (e.g., mice, rats, or non-human primates) are intravenously, intramuscularly, intraarterially, or intratumorally administered a single dose including a nanoparticle composition comprising a lipid of the disclosure and an mRNA expressing a protein, e.g., human erythropoietin (hEPO) or luciferase. A control composition including PBS may also be employed.
Upon administration of nanoparticle compositions to an animal, dose delivery profiles, dose responses, and toxicity of particular formulations and doses thereof can be measured by enzyme-linked immunosorbent assays (ELISA), bioluminescent imaging, or other methods. For nanoparticle compositions including mRNA, time courses of protein expression can also be evaluated. Samples collected from the animals for evaluation may include blood, sera, and tissue (for example, muscle tissue from the site of an intramuscular injection and internal tissue); sample collection may involve sacrifice of the animals.
ELISA test kits may provide hEPO concentrations in milli International Units per mL (mIU/mL), e.g., per mL of tested serum. Typically, the EPO concentration of unknown sample is calculated from a calibration curve. Standards (used for the calibration curve) are calibrated according to the 2. IRP WHO preparation. In some embodiments, mIU/mL corresponds to […]. Nanoparticle compositions including mRNA are useful in the evaluation of the efficacy and usefulness of various formulations for the delivery of therapeutic and/or prophylactic agents. Higher levels of protein expression induced by administration of a composition including an mRNA will be indicative of higher mRNA translation and/or nanoparticle composition mRNA delivery efficiencies. As the non-RNA components are not thought to affect translational machineries themselves, a higher level of protein expression is likely indicative of a higher efficiency of delivery of the therapeutic and/or prophylactic agent by a given nanoparticle composition relative to other nanoparticle compositions or the absence thereof.
In some embodiments, an in vivo expression assay may be used to assess potency of expression of lipids of the disclosure. In some embodiments, the protein expression (hEPO) may be measured in mice following administration of a nanoparticle comprising a lipid of the disclosure (e.g., a loaded LNP). In some embodiments, lipid nanoparticles of the instant disclosure may be intravenously administered to mice (e.g., CD-1 mice).
In some embodiments, the concentration of hEPO in serum may be tested after administration (e.g., about six hours after injection). In some embodiments, residual levels of the lipids of the disclosure in organs or tissue of the subject after administration (e.g., 6 h, 12 h, 18 h, 24 h, 36h, or 48 h after administration) are measured. In some embodiments, the residual levels of the lipids of the disclosure in the liver are measured. In some embodiments, an in vitro expression assay may be used to assess nanoparticles of the disclosure. In some embodiments, cells (e.g., HeLa) may be plated in an imaging plate (e.g., poly-D-lysine coated) and cultured in serum (e.g., human serum, mouse serum, cynomolgus monkey serum or fetal bovine serum). In some embodiments, lipid nanoparticles of the disclosure comprising an mRNA expressing fluorescent protein (e.g., green fluorescent protein (GFP)) and a fluorescent lipid (e.g., rhodamine-DOPE) may be added to the plate and the plate imaged for uptake and expression. In some embodiments, expression may be evaluated by measuring fluorescence (e.g., from GFP). […]

The nature of another data set: pH of LNP formulation. The format is physicochemical. The settings on record: LNP formulation in 20 mM Tris 8% Sucrose storage buffer.
Description: as §1

The nature of data set [2]: Osmolality of LNP formulation. The format is physicochemical. The settings on record: LNP formulation in 20 mM Tris 8% Sucrose storage buffer.
Description: as §1

Data set [3] in a line: Endotoxin content of LNP formulation. The following applies: LNP lipid:PEG-1:DSPC:Cholesterol 48:2:11:39, hEPO mRNA.
Description: as §1

Data set [4] is described as follows: LNP particle size and polydispersity index (PDI). The class given is physicochemical. The following applies: LNP lipid:PEG-1:DSPC:Cholesterol 48:2:11:39, hEPO mRNA, 20 mM Tris 8% Sucrose pH 7.4. On the procedure: A Zetasizer Nano ZS (Malvern Instruments Ltd, Malvern, Worcestershire, UK) can be used to determine the particle size, the polydispersity index (PDI) and the zeta potential of the nanoparticle compositions in 1×PBS in determining particle size and 15 mM PBS in determining zeta potential.
LNPs may be characterized by a variety of methods. For example, microscopy (e.g., transmission electron microscopy or scanning electron microscopy) may be used to examine the morphology and size distribution of a nanoparticle composition. Dynamic light scattering or potentiometry (e.g., potentiometric titrations) may be used to measure zeta potentials. Dynamic light scattering may also be utilized to determine particle sizes. Instruments such as the Zetasizer Nano ZS (Malvern Instruments Ltd, Malvern, Worcestershire, UK) may also be used to measure multiple characteristics of a nanoparticle composition, such as particle size, polydispersity index, and zeta potential.
as §1, §2

Setting [5] is: Table 3A groups 1-8, ratio to L5 LNP.
Where [6] appears, read: Table 3B groups 1A-8A, ratio to L5 LNP.

“And” between values parts separate entries of the source, which are not always exact repeats. Equal entries are not always repeated.

With `CCCCCCCCC(CC)OC(=O)CCCCCCCN(CCCCCCCC(=O)OC(CCCCCCCC)CCCCCCCC)CCCNc1c(NC)c(=O)c1=O` (stereo not shown) [Compound L5, reference compound], the “% EE” value in data set [1] is 95.2% and 96.1%. Also, in the data set on hEPO protein expression (setting [5]), the “6 hr protein expression ratio cf. L5” value was 1.0 and the “24 hr protein expression ratio cf. L5” value stood at 1.0. In the data set with hEPO protein expression (setting [6]), the “6 hr protein expression ratio cf. L5” value is reported as 1.00 and the “24 hr protein expression ratio cf. L5” value amounted to 1.00. The compound further returned a pH in the data set “pH of LNP formulation” of 7.456. In addition, the “Osmolality (mOsm/kg)” value in data set [2] was 313 mOsm/kg and 320 mOsm/kg. In addition, in data set [3], the “Endotoxin (EU/mL)” value is on record as 2 EU/mL. In addition, in data set [4], the PDI was 0.117 and 0.119; the “Size (nm)” value was 60.4 nm and 59.9 nm.

On to `CCCCCCCCC(CCCCCCCC)OC(=O)CCCCCCCN(CCCCCCC(C(=O)OCCCCCC)C(=O)OCCCCCC)CCCNC(=O)CC` [Compound M5, Dihexyl 2-(6-((8-(heptadecan-9-yloxy)-8-oxooctyl)(3-propionamidopropyl)amino)hexyl)malonate], for which the “% EE” value in data set [1] came out at 69.8%. Further, in the data set on hEPO protein expression (setting [6]), the “6 hr protein expression ratio cf. L5” value is recorded as 1.37 and the “24 hr protein expression ratio cf. L5” value stood at 1.15. Also, the pH in the data set “pH of LNP formulation” turned out to be 6.962. The “Osmolality (mOsm/kg)” value in data set [2] was 320 mOsm/kg. In addition, the “Endotoxin (EU/mL)” value in data set [3] is recorded as 2.7 EU/mL. Also, in data set [4], the PDI was determined as 0.496 and the “Size (nm)” value turned out to be 126.7 nm.

Take `CCCCCCCCC(CCCCCCCC)OC(=O)CCCCCCCN(CCCCCCC(C(=O)OCCCCCC)C(=O)OCCCCCC)CCCNC(=O)C1CC1` [Compound M6, Dihexyl 2-(6-((3-(cyclopropanecarboxamido)propyl)(8-(heptadecan-9-yloxy)-8-oxooctyl)amino)hexyl)malonate]: the “% EE” value in data set [1] is listed as 67.8%. Besides, in the data set on hEPO protein expression (setting [6]), the “6 hr protein expression ratio cf. L5” value turned out to be 0.82 and the “24 hr protein expression ratio cf. L5” value amounted to 0.81. Also, the pH in “pH of LNP formulation” was determined as 7.450. In addition, the “Osmolality (mOsm/kg)” value in data set [2] is given as 317 mOsm/kg. Further, the “Endotoxin (EU/mL)” value in data set [3] was less than 2 EU/mL. In data set [4], the PDI amounted to 0.418 and the “Size (nm)” value is 104.9 nm.

Regarding `CCCCCCCCCOC(=O)CCCCCCCN(CCO)CCCCCCCC(=O)OC(CCCCCCCC)CCCCCCCC` [Compound L4, reference compound], in data set [1], the “% EE” value is 94.8% and 92.6%. Moreover, the “6 hr protein expression ratio cf. L5” value in the data set on hEPO protein expression (setting [5]) is listed as 0.1; in the data set on hEPO protein expression (setting [6]) it was 0.08. Further, the “24 hr protein expression ratio cf. L5” value is listed as 0.1 in the data set with hEPO protein expression (setting [5]) and 0.07 with hEPO protein expression (setting [6]). The pH in “pH of LNP formulation” is 7.444. In addition, the “Osmolality (mOsm/kg)” value in data set [2] is 317 mOsm/kg and 311 mOsm/kg. Further, in data set [3], the “Endotoxin (EU/mL)” value is 2.3 EU/mL. In addition, in data set [4], the “Size (nm)” value is 74.9 nm and 104.5 nm.

As to `CCCCCCCCC(CCCCCCCC)OC(=O)CCCCCCCN(CCCCCCCC(=O)OCCC(CCCC)CCCC)CCCNS(=O)(=O)CC` [Compound L2, reference compound], the “% EE” value in data set [1] was determined as 95.8%. In the data set on hEPO protein expression (setting [5]), the “6 hr protein expression ratio cf. L5” value was determined as 0.7 and the “24 hr protein expression ratio cf. L5” value turned out to be 0.8. In data set [2], the “Osmolality (mOsm/kg)” value amounted to 315 mOsm/kg. Further, in data set [4], the PDI came out at 0.177 and the “Size (nm)” value was 60.7 nm.

On to `CCCCCCCCC(CCCCCCCC)OC(=O)CCCCCCCN(CCCCCCC(C(=O)OCCCCCC)C(=O)OCCCCCC)CCCNC(C)=O` [Compound M4, Dihexyl 2-(6-((3-acetamidopropyl)(8-(heptadecan-9-yloxy)-8-oxooctyl)amino)hexyl)malonate], for which the “% EE” value in data set [1] is on record as 92.2%. Besides, in the data set on hEPO protein expression (setting [6]), the “6 hr protein expression ratio cf. L5” value came out at 0.34 and the “24 hr protein expression ratio cf. L5” value turned out to be 0.36. This compound returned a pH in “pH of LNP formulation” of 7.450. For the same compound, the “Osmolality (mOsm/kg)” value in data set [2] worked out at 321 mOsm/kg. The “Endotoxin (EU/mL)” value in data set [3] was determined as 2.6 EU/mL. Also, in data set [4], the PDI is 0.099 and the “Size (nm)” value amounted to 68.7 nm.

As to `CCCCCCCCOC(=O)C(CCCCCCN(CCO)CCCCCCCC(=O)OC(CCCCCCCC)CCCCCCCC)C(=O)OCCCCCCCC` [Compound M2, Dioctyl 2-(6-((8-(heptadecan-9-yloxy)-8-oxooctyl)(2-hydroxyethyl)amino)hexyl)malonate], the “% EE” value in data set [1] came out at 97.9%. For the same compound, in the data set with hEPO protein expression (setting [5]), the “6 hr protein expression ratio cf. L5” value is recorded as 0.3 and the “24 hr protein expression ratio cf. L5” value worked out at 0.3. Moreover, in data set [2], the “Osmolality (mOsm/kg)” value is on record as 315 mOsm/kg. Besides, in data set [4], the PDI is on record as 0.186 and the “Size (nm)” value was determined as 58.0 nm.

These data come from patent US20260199239A1, “IONIZABLE LIPIDS WITH MALONATE TAILS” (ModernaTX, Inc., priority 2022, published 2026).
